PMC10709440, “High-throughput ligand profile characterization in novel cell lines expressing seven heterologous insect olfactory receptors for the detection of volatile plant biomarkers” (Scientific Reports, 2023)
Read-outs that look alike come from different tables or passages of the source.

Experiments:
Drosophila OR10a = molecular target: T1, Drosophila OR10a (Drosophila melanogaster, UniProt Q9VYZ1); experiment: Calcium ion fluorescence (GCaMP6) assay, OR10a stable HEK293 cell line; assay type: cell-based
T1 construct: expressed in transfected cells
T1 sequence (Q9VYZ1 1-406): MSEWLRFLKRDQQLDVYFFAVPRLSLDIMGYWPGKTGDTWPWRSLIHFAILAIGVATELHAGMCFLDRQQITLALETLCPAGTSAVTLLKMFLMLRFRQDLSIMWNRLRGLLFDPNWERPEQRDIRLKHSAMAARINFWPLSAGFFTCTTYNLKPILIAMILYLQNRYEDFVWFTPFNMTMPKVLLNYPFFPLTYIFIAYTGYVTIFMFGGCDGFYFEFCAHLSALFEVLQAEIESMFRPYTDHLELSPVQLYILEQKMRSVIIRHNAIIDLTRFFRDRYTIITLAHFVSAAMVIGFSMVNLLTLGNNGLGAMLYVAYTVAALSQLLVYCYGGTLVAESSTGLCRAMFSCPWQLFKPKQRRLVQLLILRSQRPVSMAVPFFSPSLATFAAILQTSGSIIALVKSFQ
T1 sequence (Q9VNB5 1-486 partner): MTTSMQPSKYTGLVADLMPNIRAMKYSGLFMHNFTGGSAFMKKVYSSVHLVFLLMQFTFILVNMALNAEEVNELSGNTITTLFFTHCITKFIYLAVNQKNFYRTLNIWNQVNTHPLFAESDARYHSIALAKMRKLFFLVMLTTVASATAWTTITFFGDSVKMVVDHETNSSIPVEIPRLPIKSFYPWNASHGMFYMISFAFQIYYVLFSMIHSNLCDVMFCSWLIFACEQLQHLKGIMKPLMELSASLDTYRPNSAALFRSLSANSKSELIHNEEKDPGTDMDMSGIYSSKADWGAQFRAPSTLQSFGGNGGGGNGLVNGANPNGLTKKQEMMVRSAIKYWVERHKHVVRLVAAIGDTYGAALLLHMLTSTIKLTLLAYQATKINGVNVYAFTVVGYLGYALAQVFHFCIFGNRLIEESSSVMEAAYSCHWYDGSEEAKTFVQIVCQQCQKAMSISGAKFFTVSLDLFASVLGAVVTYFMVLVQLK
How it was run: (§1)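 Responses are VUAA1-normalized ΔF: each VOC-evoked calcium signal, (FMAX−F0)/F0 over 30 s after injection, divided by the same line's mean 50 µM VUAA1 response. Cells were doxycycline-induced HEK293 with GCaMP6 and the cognate Drosophila OR, in HEPES buffer pH 7.3; ligands tested 0.01–100 μM.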

Drosophila OR13a = molecular target: T2, Drosophila OR13a (Drosophila melanogaster, UniProt Q9VXL0); experiment: Calcium ion fluorescence (GCaMP6) assay, OR13a stable HEK293 cell line; assay type: cell-based
T2 construct: expressed in transfected cells
T2 sequence (Q9VXL0 1-418): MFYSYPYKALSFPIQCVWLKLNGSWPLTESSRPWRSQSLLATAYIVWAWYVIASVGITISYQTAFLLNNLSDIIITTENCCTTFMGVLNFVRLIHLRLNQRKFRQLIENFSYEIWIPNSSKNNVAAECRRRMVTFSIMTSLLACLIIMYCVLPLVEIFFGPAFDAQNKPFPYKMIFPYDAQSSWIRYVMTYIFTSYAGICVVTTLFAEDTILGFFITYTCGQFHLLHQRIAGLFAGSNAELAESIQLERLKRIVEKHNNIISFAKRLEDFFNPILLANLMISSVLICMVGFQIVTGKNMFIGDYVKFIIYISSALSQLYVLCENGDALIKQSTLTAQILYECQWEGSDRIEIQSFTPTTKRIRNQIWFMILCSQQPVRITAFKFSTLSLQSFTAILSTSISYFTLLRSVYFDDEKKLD
T2 sequence (Q9VNB5 1-486 partner): T1 sequence (Q9VNB5 1-486 partner)
How it was run: as §1

[1] = 100 µM, OR10a clone G5, single plate 2019.12.05
[2] = ligand concentration 10 (unit not given), 0.05 threshold, values below shown as 0
[3] = ligand concentration 100 (unit not given), 0.05 threshold, values below shown as 0
[4] = HEK293, read-out: OR13a Average response (VUAA1-normalized), 1 μM VOC, 50 μM VUAA1 = 1, responses not exceeding 0.05 considered 0
[5] = HEK293, read-out: OR13a Average response (VUAA1-normalized), 10 μM VOC, 50 μM VUAA1 = 1, responses not exceeding 0.05 considered 0
[6] = HEK293, read-out: OR13a Average response (VUAA1-normalized), 100 μM VOC, 50 μM VUAA1 = 1, responses not exceeding 0.05 considered 0
[7] = ligand concentration 1 (unit not given), 0.05 threshold, values below shown as 0
[8] = HEK293, read-out: OR10a Average response (VUAA1-normalized), 1 μM VOC, 50 μM VUAA1 = 1, responses not exceeding 0.05 considered 0
[9] = HEK293, read-out: OR10a Average response (VUAA1-normalized), 10 μM VOC, 50 μM VUAA1 = 1, responses not exceeding 0.05 considered 0
[10] = HEK293, read-out: OR10a Average response (VUAA1-normalized), 100 μM VOC, 50 μM VUAA1 = 1, responses not exceeding 0.05 considered 0
[11] = 1 μM VOC, 50 μM VUAA1 = 1, responses not exceeding 0.05 considered 0
[12] = 10 μM VOC, 50 μM VUAA1 = 1, responses not exceeding 0.05 considered 0
[13] = 100 μM VOC, 50 μM VUAA1 = 1, responses not exceeding 0.05 considered 0
[14] = ligand concentration 1 (unit not given), threshold 0.05, below shown as 0
[15] = ligand concentration 10 (unit not given), threshold 0.05, below shown as 0
[16] = ligand concentration 100 (unit not given), threshold 0.05, below shown as 0

Compound: CC/C=C\CCOC(C)=O [z3-hexenyl acetate]
- DF norm, all technical replicates (Drosophila OR10a; [1]): 0
- DF norm, outlier technical replicates removed (Drosophila OR10a; [1]): 0
- DF, outlier technical replicates removed (Drosophila OR10a; [1]): 0
- DF, all technical replicates (Drosophila OR10a; 100 µM, OR10a clone G5, single plate 2019.12.05, xc+0.1%DMSO): 0
- activation at 1 µM (Drosophila OR10a; HEK293, 1 μM VOC, 50 μM VUAA1 = 1, responses not exceeding 0.05 considered 0, read-out: OR10a Average response (VUAA1-normalized)): 14%
- activation at 10 µM (Drosophila OR10a; HEK293, 10 μM VOC, 50 μM VUAA1 = 1, responses not exceeding 0.05 considered 0, read-out: OR10a Average response (VUAA1-normalized)): 0%
- activation at 100 µM (Drosophila OR10a; HEK293, 100 μM VOC, 50 μM VUAA1 = 1, responses not exceeding 0.05 considered 0, read-out: OR10a Average response (VUAA1-normalized)): 0%
- DF norm AVERAGE OR10a (Drosophila OR10a; ligand concentration 1 (unit not given), […]): 0.1361
- DF norm AVERAGE OR10a (Drosophila OR10a; [2]): 0
- DF norm AVERAGE OR10a (Drosophila OR10a; [3]): 0
- activation at 1 µM (Drosophila OR13a; [4]): 0%
- activation at 10 µM (Drosophila OR13a; [5]): 2.61%
- activation at 100 µM (Drosophila OR13a; [6]): 9%
- DF norm AVERAGE OR13a (Drosophila OR13a; [7]): 0
- DF norm AVERAGE OR13a (Drosophila OR13a; [2]): 0
- DF norm AVERAGE OR13a (Drosophila OR13a; [3]): 0.09283

Compound: Cc1ccccc1 [toluene]
- activation at 1 µM (Drosophila OR10a; [8]): 3%
- activation at 10 µM (Drosophila OR10a; [9]): 0%
- activation at 100 µM (Drosophila OR10a; [10]): 7%
- OR10a response (VUAA1-normalized) at 1 μM (Drosophila OR10a; OR10a cell line, VOC concentration 1 μM): 0.00
- OR10a response (VUAA1-normalized) at 10 μM (Drosophila OR10a; OR10a cell line, VOC concentration 10 μM): 0.00
- OR10a response (VUAA1-normalized) at 100 μM (Drosophila OR10a; OR10a cell line, VOC concentration 100 μM): 0.07
- DF norm AVERAGE OR10a (Drosophila OR10a; [7]): 0
- DF norm AVERAGE OR10a (Drosophila OR10a; [2]): 0
- DF norm AVERAGE OR10a (Drosophila OR10a; [3]): 0.07043
- activation at 1 µM (Drosophila OR13a; [4]): 0%
- activation at 10 µM (Drosophila OR13a; [5]): 0%
- activation at 100 µM (Drosophila OR13a; [6]): 0%
- OR13a response (VUAA1-normalized) at 1 μM (Drosophila OR13a; OR13a cell line, VOC concentration 1 μM): 0.00
- OR13a response (VUAA1-normalized) at 10 μM (Drosophila OR13a; OR13a cell line, VOC concentration 10 μM): 0.00
- OR13a response (VUAA1-normalized) at 100 μM (Drosophila OR13a; OR13a cell line, VOC concentration 100 μM): 0.00
- DF norm AVERAGE OR13a (Drosophila OR13a; [7]): 0
- DF norm AVERAGE OR13a (Drosophila OR13a; [2]): 0
- DF norm AVERAGE OR13a (Drosophila OR13a; [3]): 0

Compound: (+)-beta-cedrene
- DF norm AVERAGE OR10a (Drosophila OR10a): 0
- OR10a Average response (VUAA1-normalized) (Drosophila OR10a; [11]): 0.0218
- OR10a Average response (VUAA1-normalized) (Drosophila OR10a; [12]): 0.0187
- OR10a Average response (VUAA1-normalized) (Drosophila OR10a; [13]): 0.00
- OR10a response (VUAA1-normalized response) (Drosophila OR10a; VOC concentration 1 μM): 0.00
- OR10a response (VUAA1-normalized response) (Drosophila OR10a; VOC concentration 10 μM): 0.00
- OR10a response (VUAA1-normalized response) (Drosophila OR10a; VOC concentration 100 μM): 0.00
- OR13a Average response (VUAA1-normalized) (Drosophila OR13a; [11]): 0.00
- OR13a Average response (VUAA1-normalized) (Drosophila OR13a; [12]): 0.00
- OR13a Average response (VUAA1-normalized) (Drosophila OR13a; [13]): 0.00
- OR13a response (VUAA1-normalized response) (Drosophila OR13a; VOC concentration 1 μM): 0.00
- OR13a response (VUAA1-normalized response) (Drosophila OR13a; VOC concentration 10 μM): 0.00
- OR13a response (VUAA1-normalized response) (Drosophila OR13a; VOC concentration 100 μM): 0.00
- DF norm AVERAGE OR13a (Drosophila OR13a; concentration 1, normalized fluorescence change, values below 0.05 threshold given as 0): 0
- DF norm AVERAGE OR13a (Drosophila OR13a; concentration 10, normalized fluorescence change, values below 0.05 threshold given as 0): 0
- DF norm AVERAGE OR13a (Drosophila OR13a; concentration 100, normalized fluorescence change, values below 0.05 threshold given as 0): 0

Compound: CC1=CC[C@@H](C(C)(C)O)CC1 [alpha-terpineol]
- activation at 1 µM (Drosophila OR10a; [8]): 3.64%
- activation at 10 µM (Drosophila OR10a; [9]): 2.71%
- activation at 100 µM (Drosophila OR10a; [10]): 0%
- activation at 1 µM (Drosophila OR10a; HEK293, read-out: OR10a response (VUAA1-normalized response), VOC concentration 1 μM): 0%
- activation at 10 µM (Drosophila OR10a; HEK293, read-out: OR10a response (VUAA1-normalized response), VOC concentration 10 μM): 0%
- activation at 100 µM (Drosophila OR10a; HEK293, read-out: OR10a response (VUAA1-normalized response), VOC concentration 100 μM): 0%
- DF norm AVERAGE OR10a (Drosophila OR10a; [14]): 0
- DF norm AVERAGE OR10a (Drosophila OR10a; [15]): 0
- DF norm AVERAGE OR10a (Drosophila OR10a; [16]): 0
- activation at 1 µM (Drosophila OR13a; [4]): 3.36%
- activation at 10 µM (Drosophila OR13a; [5]): 0%
- activation at 100 µM (Drosophila OR13a; [6]): 0%
- activation at 1 µM (Drosophila OR13a; HEK293, read-out: OR13a response (VUAA1-normalized response), VOC concentration 1 μM): 0%
- activation at 10 µM (Drosophila OR13a; HEK293, read-out: OR13a response (VUAA1-normalized response), VOC concentration 10 μM): 0%
- activation at 100 µM (Drosophila OR13a; HEK293, read-out: OR13a response (VUAA1-normalized response), VOC concentration 100 μM): 0%
- DF norm AVERAGE OR13a (Drosophila OR13a; [14]): 0
- DF norm AVERAGE OR13a (Drosophila OR13a; [15]): 0
- DF norm AVERAGE OR13a (Drosophila OR13a; [16]): 0
